{"source": "ChEMBL document CHEMBL3259565", "about": "(ACS Med Chem Lett, 2014)", "key": {"[1]": {"biological_target": "T1, Histone-lysine N-methyltransferase EHMT1 (Homo sapiens) (UniProt Q9H9B1)", "T1 sequence (whole entry)": "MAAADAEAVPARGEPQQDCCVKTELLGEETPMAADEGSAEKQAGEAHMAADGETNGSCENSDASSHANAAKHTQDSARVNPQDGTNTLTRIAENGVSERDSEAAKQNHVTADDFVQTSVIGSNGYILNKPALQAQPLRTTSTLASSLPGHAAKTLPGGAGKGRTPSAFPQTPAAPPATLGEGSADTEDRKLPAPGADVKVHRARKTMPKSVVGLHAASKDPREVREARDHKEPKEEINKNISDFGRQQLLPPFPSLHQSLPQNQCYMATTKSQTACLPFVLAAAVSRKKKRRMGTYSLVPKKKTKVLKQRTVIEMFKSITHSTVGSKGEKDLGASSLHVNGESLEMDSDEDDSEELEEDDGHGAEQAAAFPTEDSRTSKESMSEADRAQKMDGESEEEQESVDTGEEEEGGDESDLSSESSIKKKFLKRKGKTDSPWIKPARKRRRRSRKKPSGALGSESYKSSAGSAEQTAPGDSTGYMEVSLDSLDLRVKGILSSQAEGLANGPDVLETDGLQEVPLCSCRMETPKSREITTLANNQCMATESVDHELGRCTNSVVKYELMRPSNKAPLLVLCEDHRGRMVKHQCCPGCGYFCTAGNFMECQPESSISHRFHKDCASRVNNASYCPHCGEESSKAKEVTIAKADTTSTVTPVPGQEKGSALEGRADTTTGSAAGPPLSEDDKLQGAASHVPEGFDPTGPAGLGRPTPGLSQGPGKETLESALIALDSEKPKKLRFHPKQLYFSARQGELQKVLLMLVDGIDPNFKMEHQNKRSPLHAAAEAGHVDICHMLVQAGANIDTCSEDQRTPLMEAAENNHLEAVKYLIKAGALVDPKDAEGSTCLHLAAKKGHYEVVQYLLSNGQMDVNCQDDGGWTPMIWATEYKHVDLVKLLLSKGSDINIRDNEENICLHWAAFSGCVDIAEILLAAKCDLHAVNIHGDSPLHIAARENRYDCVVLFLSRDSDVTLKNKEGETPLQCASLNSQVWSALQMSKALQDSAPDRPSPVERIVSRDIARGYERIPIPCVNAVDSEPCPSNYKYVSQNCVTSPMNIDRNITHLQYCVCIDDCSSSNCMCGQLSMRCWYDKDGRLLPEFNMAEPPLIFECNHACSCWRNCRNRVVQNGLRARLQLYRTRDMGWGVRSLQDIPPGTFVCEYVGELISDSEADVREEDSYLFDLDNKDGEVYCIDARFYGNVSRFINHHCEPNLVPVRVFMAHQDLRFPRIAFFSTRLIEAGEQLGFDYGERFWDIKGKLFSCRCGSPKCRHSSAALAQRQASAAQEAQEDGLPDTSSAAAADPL", "test": "Inhibition of methyltransferase activity of EHMT1 (unknown origin)-mediated dimethylation of a biotinylated histone H3 peptide at lysine-9 at 100 uM by FRET-based LANCE ultra G9a assay"}, "[2]": {"biological_target": "T2, Histone-lysine N-methyltransferase EHMT1 (Homo sapiens, UniProt Q9H9B1)", "T2 sequence (Q9H9B1 whole entry)": "T1 sequence (whole entry)", "test": "Inhibition of methyltransferase activity of EHMT1 (unknown origin)-mediated dimethylation of a biotinylated histone H3 peptide at lysine-9 by FRET-based LANCE ultra G9a assay"}, "[3]": {"biological_target": "T3, Histone-lysine N-methyltransferase EHMT2 (Homo sapiens, UniProt Q96KQ7)", "T3 sequence (Q96KQ7 whole entry)": "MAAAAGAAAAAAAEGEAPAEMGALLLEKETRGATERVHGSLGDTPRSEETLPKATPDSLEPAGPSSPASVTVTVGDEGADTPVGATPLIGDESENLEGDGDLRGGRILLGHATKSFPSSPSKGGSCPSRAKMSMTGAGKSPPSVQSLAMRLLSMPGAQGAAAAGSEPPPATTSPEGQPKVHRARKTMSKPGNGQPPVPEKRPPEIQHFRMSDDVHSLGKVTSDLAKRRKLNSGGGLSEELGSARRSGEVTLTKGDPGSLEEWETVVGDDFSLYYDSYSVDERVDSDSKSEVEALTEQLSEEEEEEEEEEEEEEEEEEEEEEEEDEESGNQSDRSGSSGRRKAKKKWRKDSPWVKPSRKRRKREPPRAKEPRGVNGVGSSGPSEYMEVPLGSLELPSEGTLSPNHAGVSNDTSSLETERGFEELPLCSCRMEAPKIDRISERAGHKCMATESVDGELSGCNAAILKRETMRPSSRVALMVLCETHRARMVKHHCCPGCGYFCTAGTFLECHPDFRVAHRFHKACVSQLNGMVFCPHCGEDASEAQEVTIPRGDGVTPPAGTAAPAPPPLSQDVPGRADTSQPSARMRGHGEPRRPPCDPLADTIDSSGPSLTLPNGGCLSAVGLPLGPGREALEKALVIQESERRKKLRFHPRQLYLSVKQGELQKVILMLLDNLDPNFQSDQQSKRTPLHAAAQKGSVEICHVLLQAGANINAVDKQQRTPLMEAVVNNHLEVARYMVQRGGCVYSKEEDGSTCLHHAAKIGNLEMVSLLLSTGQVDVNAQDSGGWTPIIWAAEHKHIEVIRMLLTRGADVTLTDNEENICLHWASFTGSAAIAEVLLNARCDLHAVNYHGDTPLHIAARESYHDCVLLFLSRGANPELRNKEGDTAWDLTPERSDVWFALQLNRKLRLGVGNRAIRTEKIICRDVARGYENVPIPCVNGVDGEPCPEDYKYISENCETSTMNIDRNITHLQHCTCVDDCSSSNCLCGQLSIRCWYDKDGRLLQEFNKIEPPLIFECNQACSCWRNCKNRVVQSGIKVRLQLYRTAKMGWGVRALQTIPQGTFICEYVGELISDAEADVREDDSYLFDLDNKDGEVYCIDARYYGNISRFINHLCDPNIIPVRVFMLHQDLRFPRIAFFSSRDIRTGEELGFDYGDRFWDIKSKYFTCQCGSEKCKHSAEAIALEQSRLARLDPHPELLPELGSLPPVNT", "test": "Inhibition of methyltransferase activity of EHMT2 (unknown origin)-mediated dimethylation of a biotinylated histone H3 peptide at lysine-9 by FRET-based LANCE ultra G9a assay"}, "[4]": {"biological_target": "T1, Histone-lysine N-methyltransferase EHMT1 (Homo sapiens)", "test": "Non-competitive inhibition of methyltransferase activity of EHMT1 (unknown origin)"}, "[5]": {"biological_target": "T4, Histone-lysine N-methyltransferase EHMT2 (Homo sapiens) (UniProt Q96KQ7)", "T4 sequence (whole entry)": "T3 sequence (Q96KQ7 whole entry)", "test": "Non-competitive inhibition of methyltransferase activity of EHMT2 (unknown origin)"}, "[6]": {"biological_target": "T5, DNA (cytosine-5)-methyltransferase 1 (Homo sapiens, UniProt P26358)", "T5 sequence (P26358 whole entry)": "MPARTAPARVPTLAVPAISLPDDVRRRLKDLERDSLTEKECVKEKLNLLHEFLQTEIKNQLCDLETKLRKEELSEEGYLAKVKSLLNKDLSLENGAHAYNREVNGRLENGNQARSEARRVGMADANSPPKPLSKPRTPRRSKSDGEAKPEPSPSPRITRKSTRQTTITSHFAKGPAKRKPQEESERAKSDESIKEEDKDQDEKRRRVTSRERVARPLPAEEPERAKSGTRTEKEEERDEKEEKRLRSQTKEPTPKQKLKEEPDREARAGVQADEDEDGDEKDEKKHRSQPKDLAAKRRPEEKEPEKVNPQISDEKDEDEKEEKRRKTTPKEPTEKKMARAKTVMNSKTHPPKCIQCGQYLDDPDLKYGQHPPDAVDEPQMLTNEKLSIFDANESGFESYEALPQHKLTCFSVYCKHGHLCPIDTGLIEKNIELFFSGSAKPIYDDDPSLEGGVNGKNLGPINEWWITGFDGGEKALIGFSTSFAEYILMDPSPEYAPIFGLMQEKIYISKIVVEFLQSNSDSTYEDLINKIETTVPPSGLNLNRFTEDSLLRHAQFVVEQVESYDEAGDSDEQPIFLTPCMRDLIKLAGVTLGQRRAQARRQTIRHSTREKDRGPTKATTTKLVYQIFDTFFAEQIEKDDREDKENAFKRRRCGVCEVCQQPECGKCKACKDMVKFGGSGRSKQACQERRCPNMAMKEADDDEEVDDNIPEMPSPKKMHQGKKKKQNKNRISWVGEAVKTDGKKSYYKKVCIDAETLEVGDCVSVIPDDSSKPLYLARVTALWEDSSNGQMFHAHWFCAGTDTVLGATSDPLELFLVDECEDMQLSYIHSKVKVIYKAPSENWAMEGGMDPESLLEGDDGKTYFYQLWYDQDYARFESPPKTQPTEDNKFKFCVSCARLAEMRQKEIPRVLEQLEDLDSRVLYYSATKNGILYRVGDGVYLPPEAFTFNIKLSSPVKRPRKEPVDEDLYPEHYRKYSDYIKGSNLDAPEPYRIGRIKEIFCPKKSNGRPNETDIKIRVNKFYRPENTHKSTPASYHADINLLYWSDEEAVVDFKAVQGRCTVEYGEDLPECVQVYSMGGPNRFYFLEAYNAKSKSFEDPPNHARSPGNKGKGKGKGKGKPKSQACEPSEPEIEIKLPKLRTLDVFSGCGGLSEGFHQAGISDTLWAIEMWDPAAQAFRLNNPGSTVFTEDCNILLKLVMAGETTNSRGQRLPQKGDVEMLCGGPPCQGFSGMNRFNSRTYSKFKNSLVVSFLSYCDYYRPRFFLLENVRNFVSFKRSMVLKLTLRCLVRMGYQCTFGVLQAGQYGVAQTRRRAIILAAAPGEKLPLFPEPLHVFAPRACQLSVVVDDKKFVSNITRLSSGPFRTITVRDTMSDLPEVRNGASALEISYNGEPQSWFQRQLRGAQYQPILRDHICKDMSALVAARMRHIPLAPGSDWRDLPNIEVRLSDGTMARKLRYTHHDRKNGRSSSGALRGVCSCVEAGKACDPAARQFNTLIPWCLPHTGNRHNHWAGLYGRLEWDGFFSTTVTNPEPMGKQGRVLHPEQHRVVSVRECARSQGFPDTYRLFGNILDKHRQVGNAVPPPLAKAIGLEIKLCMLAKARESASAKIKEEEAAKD", "test": "Inhibition of DNMT1 (unknown origin) at 200 uM"}, "[7]": {"biological_target": "Protein arginine N-methyltransferase 1 (Homo sapiens) (UniProt Q99873)", "sequence (Q99873 whole entry, looked up)": "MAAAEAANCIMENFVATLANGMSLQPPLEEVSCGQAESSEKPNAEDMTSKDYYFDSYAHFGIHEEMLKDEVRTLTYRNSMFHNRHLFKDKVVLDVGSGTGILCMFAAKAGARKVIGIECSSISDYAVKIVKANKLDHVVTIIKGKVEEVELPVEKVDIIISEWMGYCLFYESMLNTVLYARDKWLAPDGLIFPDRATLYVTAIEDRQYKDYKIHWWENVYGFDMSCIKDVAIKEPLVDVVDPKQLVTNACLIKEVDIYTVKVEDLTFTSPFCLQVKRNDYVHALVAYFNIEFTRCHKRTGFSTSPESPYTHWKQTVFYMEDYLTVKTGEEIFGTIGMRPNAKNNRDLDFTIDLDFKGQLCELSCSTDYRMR", "test": "Inhibition of PRMT1 (unknown origin) at 200 uM"}, "[8]": {"biological_target": "T6, Histone-lysine N-methyltransferase SETD7 (Homo sapiens) (UniProt Q8WTS6)", "T6 sequence (whole entry)": "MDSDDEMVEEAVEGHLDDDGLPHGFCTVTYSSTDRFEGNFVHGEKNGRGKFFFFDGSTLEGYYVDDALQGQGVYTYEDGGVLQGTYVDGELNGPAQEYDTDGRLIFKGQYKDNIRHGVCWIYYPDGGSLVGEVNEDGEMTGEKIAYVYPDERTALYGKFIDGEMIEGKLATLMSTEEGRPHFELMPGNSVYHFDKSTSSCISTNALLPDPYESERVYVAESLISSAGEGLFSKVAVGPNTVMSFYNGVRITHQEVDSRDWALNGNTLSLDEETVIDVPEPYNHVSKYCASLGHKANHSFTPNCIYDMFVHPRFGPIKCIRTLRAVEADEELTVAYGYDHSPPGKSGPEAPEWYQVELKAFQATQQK", "test": "Inhibition of SET7/9 (unknown origin) at 200 uM"}, "[9]": {"biological_target": "T5, DNA (cytosine-5)-methyltransferase 1", "test": "Inhibition of DNMT1 (unknown origin)"}}, "note": "Active and inactive are the calls of the source. The calls are words filed in the database; no cut-off is given here."}
{"smiles": "CCCCC[C@H]1O[C@@H](n2cnc3c(N)ncnc32)[C@H](O)[C@@H]1O", "values": [{"measurement": "inhibition", "setting": "[1]", "value": "> 40", "unit": "%"}, {"measurement": "IC50", "setting": "[2]", "value": 87, "unit": "µM"}, {"measurement": "IC50", "setting": "[3]", "value": 103, "unit": "µM"}, {"measurement": "inhibition", "setting": "[4]", "value": "Active"}, {"measurement": "inhibition", "setting": "[5]", "value": "Active"}, {"measurement": "inhibition", "setting": "[6]", "value": "inactive"}, {"measurement": "inhibition", "setting": "[7]", "value": "inactive"}, {"measurement": "inhibition", "setting": "[8]", "value": "inactive"}]}
{"smiles": "Nc1ncnc2c1ncn2[C@@H]1O[C@H](CCCc2ccccc2)[C@@H](O)[C@H]1O", "values": [{"measurement": "inhibition", "setting": "[1]", "value": "> 40", "unit": "%"}, {"measurement": "IC50", "setting": "[2]", "value": 235, "unit": "µM"}, {"measurement": "IC50", "setting": "[3]", "value": 190, "unit": "µM"}]}
{"smiles": "Nc1ncnc2c1ncn2[C@@H]1O[C@H](CC(N)CC2CCCCC2)[C@@H](O)[C@H]1O", "note": "(stereo partly drawn)", "values": [{"measurement": "inhibition", "setting": "[1]", "value": "> 40", "unit": "%"}, {"measurement": "IC50", "setting": "[2]", "value": 1.5, "unit": "µM"}, {"measurement": "IC50", "setting": "[3]", "value": 1.6, "unit": "µM"}, {"measurement": "inhibition", "setting": "[4]", "value": "Active"}, {"measurement": "inhibition", "setting": "[5]", "value": "Active"}, {"measurement": "IC50", "setting": "[9]", "value": 179, "unit": "µM"}, {"measurement": "inhibition", "setting": "[7]", "value": "inactive"}, {"measurement": "inhibition", "setting": "[8]", "value": "inactive"}]}
{"smiles": "Nc1ncnc2c1ncn2[C@@H]1O[C@H](C[C@@H](N)CC[C@H](N)C(=O)O)[C@@H](O)[C@H]1O", "note": "[SINEFUNGIN]", "values": [{"measurement": "IC50", "setting": "[2]", "value": 513, "unit": "µM"}]}
{"smiles": "COc1ccc(CC(N)C[C@H]2O[C@@H](n3cnc4c(N)ncnc43)[C@H](O)[C@@H]2O)cc1OC", "note": "(stereo partly drawn)", "values": [{"measurement": "inhibition", "setting": "[1]", "value": "> 40", "unit": "%"}, {"measurement": "IC50", "setting": "[2]", "value": 147, "unit": "µM"}, {"measurement": "IC50", "setting": "[3]", "value": 157, "unit": "µM"}]}
